# Test results published in patent US10723705B2, “Heterocyclic compounds and uses thereof” (Incyte Corporation, priority 2015, dated 2020).
# Where two headings read alike, the source gives them in different places.
# Biological target: Human recombinant Histone Deacetylase 8 (HDAC8) (Homo sapiens (Human), UniProt Q9BY41)
# Assay: HDAC8 Enzymatic Assay (HDAC-Glo I/II luminescence)
# Assay type: biochemical
# How it was run: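 Human recombinant HDAC8 (1.5 nM final) preincubated with compound for 30 min, then reacted with 50 μM Boc-GAK(Ac)-aminoluciferin plus trypsin-containing developer for 15 min at room temperature, pH 8.0, 0.5% DMSO. Luminescence read-out; IC50 from percent control activity versus log concentration.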
# [1] = class symbols, Table 14, read-out: HDAC8 IC50
# Chain of Human recombinant Histone Deacetylase 8 (HDAC8) (Q9BY41 whole entry): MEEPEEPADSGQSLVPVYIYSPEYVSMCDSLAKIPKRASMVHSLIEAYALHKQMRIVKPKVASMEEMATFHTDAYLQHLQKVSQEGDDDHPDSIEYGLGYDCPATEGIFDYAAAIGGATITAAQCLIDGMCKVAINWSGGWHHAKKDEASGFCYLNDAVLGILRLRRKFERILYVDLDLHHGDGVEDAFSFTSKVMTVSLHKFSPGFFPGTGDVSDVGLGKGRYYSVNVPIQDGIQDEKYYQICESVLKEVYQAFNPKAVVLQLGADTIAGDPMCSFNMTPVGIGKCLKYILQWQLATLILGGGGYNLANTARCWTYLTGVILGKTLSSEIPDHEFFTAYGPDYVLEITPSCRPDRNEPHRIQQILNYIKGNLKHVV
Structure (SMILES),"IC50 (HDAC8, read-out: IC50) [nM]",IC50 [1] [nM]
"O=C(NO)C(Cc1ccccc1)n1cc2cccc(CNC3CC3)c2n1 (stereo not shown) [Compound I-0180, 2-{7-[(Cyclopropylamino)methyl]-2H-indazol-2-yl}-N-hydroxy-3-phenylpropanamide]",469,200 to 500
"O=C(NO)C(Cc1ccccc1)n1cc2cccc(CNCC3CC3)c2n1 (stereo not shown) [Compound I-0181, 2-(7-((cyclopropylmethylamino)methyl)-2H-indazol-2-yl)-N-hydroxy-3-phenylpropanamide]",–,> 500
"O=C(NO)C(Cc1ccccc1)n1cc2cccc(CNC3CCOCC3)c2n1 (stereo not shown) [Compound I-0182, N-hydroxy-3-phenyl-2-(7-((tetrahydro-2H-pyran-4-ylamino)methyl)-2H-indazol-2-yl)propanamide]",–,> 500
"O=C(NO)C(Cc1ccccc1)n1cc2cccc(CN3CCOCC3)c2n1 (stereo not shown) [Compound I-0183, N-hydroxy-2-(7-(morpholinomethyl)-2H-indazol-2-yl)-3-phenylpropanamide]",–,200 to 500
"COC1CCN(Cc2cccc3cn(C(Cc4ccccc4)C(=O)NO)nc23)CC1 (stereo not shown) [Compound I-0184, N-hydroxy-2-(7-((4-methoxypiperidin-1-yl)methyl)-2H-indazol-2-yl)-3-phenylpropanamide]",–,200 to 500
"O=C(NO)C(Cc1ccccc1)n1cc2cccc(CN3CCC(N4CCOCC4)CC3)c2n1 (stereo not shown) [Compound I-0185, N-hydroxy-2-(7-((4-morpholinopiperidin-1-yl)methyl)-2H-indazol-2-yl)-3-phenylpropanamide]",–,> 500
"O=C(NO)C(Cc1ccccc1)n1cc2cccc(CN3CCC4(CC3)COC4)c2n1 (stereo not shown) [Compound I-0186, 2-(7-(2-oxa-7-azaspiro[3.5]nonan-7-ylmethyl)-2H-indazol-2-yl)-N-hydroxy-3-phenylpropanamide]",–,> 500
"O=C(NO)C(Cc1ccccc1)n1cc2cccc(CN3CCC4(CCOCC4)CC3)c2n1 (stereo not shown) [Compound I-0187, 2-(7-(3-oxa-9-azaspiro[5.5]undecan-9-ylmethyl)-2H-indazol-2-yl)-N-hydroxy-3-phenylpropanamide]",–,> 500
"CN1CCN(Cc2cccc3cn(C(Cc4ccccc4)C(=O)NO)nc23)CC1 (stereo not shown) [Compound I-0188, N-hydroxy-2-(7-((4-methylpiperazin-1-yl)methyl)-2H-indazol-2-yl)-3-phenylpropanamide]",–,> 500
"O=C(NO)C(Cc1ccccc1)n1cc2cccc(CN3CCC(F)(F)CC3)c2n1 (stereo not shown) [Compound I-0189, 2-(7-((4,4-difluoropiperidin-1-yl)methyl)-2H-indazol-2-yl)-N-hydroxy-3-phenylpropanamide]",–,200 to 500
"O=C(NO)C(Cc1ccccc1)n1cc2cccc(CN3CCCC(F)(F)C3)c2n1 (stereo not shown) [Compound I-0190, 2-(7-((3,3-difluoropiperidin-1-yl)methyl)-2H-indazol-2-yl)-N-hydroxy-3-phenylpropanamide]",–,200 to 500
"O=C(NO)C(Cc1ccccc1)n1cc2cccc(CN3CCC(C(F)(F)F)CC3)c2n1 (stereo not shown) [Compound I-0191, N-hydroxy-3-phenyl-2-(7-((4-(trifluoromethyl)piperidin-1-yl)methyl)-2H-indazol-2-yl)propanamide]",–,> 500
"CN1CCN(Cc2cccc3cn(C(Cc4ccccc4)C(=O)NO)nc23)CC1=O (stereo not shown) [Compound I-0192, N-hydroxy-2-(7-((4-methyl-3-oxopiperazin-1-yl)methyl)-2H-indazol-2-yl)-3-phenylpropanamide]",–,50 to 200
"O=C(NO)C(Cc1ccccc1)n1ccc2nc(Cl)ccc21 (stereo not shown) [Compound I-0193, 2-(5-chloro-1H-pyrrolo[3,2-b]pyridin-1-yl)-N-hydroxy-3-phenylpropanamide]",–,> 500
"O=C(NO)C(Cc1ccccc1)n1ccc2cc(Cl)ncc21 (stereo not shown) [Compound I-0194, 2-(5-chloro-1H-pyrrolo[2,3-c]pyridin-1-yl)-N-hydroxy-3-phenylpropanamide]",–,> 500
"O=C(NO)C(Cc1ccccc1)n1ccc2cc(Cl)cnc21 (stereo not shown) [Compound I-0195, 2-(5-chloro-1H-pyrrolo[2,3-b]pyridin-1-yl)-N-hydroxy-3-phenylpropanamide]",–,200 to 500
"O=C(NO)C(Cc1ccccc1)n1ccc2c(Cl)nccc21 (stereo not shown) [Compound I-0196, 2-(4-chloro-1H-pyrrolo[3,2-c]pyridin-1-yl)-N-hydroxy-3-phenylpropanamide]",–,200 to 500
"O=C(NCCC1CCOCC1)c1cccc2c(C#CC3CC3)n(C(Cc3ccccc3)C(=O)NO)nc12 (stereo not shown) [Compound I-0197, 2-[1-Benzyl-2-(hydroxyamino)-2-oxethyl]-3-(cyclopropylethynyl)-N-[2-(tetrahydro-2H-pyran-4-yl)ethyl]-2H-indazole-7-carboxamide]",16,≤ 50
"O=C(NO)C(Cc1ccccc1)n1cc2ccnc(-c3cncnc3)c2n1 (stereo not shown) [Compound I-0198, N-hydroxy-3-phenyl-2-(7-(pyrimidin-5-yl)-2H-pyrazolo[3,4-c]pyridin-2-yl)propanamide]",–,≤ 50
"Cn1nccc1-c1nccc2cn(C(Cc3ccccc3)C(=O)NO)nc12 (stereo not shown) [Compound I-0199, N-hydroxy-2-(7-(1-methyl-1H-pyrazol-5-yl)-2H-pyrazolo[3,4-c]pyridin-2-yl)-3-phenylpropanamide]",–,≤ 50
"O=C(NO)C(Cc1ccccc1)n1cc2c(n1)CCCC2 (stereo not shown) [Compound I-0200, N-hydroxy-3-phenyl-2-(4,5,6,7-tetrahydro-2H-indazol-2-yl)propanamide]",–,200 to 500
"O=C(NO)C(Cc1ccccc1)n1ncc2c1CCCC2 (stereo not shown) [Compound I-0201, N-hydroxy-3-phenyl-2-(4,5,6,7-tetrahydro-1H-indazol-1-yl)propanamide]",–,200 to 500
"Cn1nc(C(Cc2ccccc2)C(=O)NO)c2ccc(Cl)cc21 (stereo not shown) [Compound I-0202, 2-(6-Chloro-1-methyl-1H-indazol-3-yl)-N-hydroxy-3-phenylpropanamide]",39,–
"Cn1nccc1-c1ccc2c(C(Cc3ccccc3)C(=O)NO)nn(C)c2c1 (stereo not shown) [Compound I-0203, N-hydroxy-2-(1-methyl-6-(1-methyl-1H-pyrazol-5-yl)-1H-indazol-3-yl)-3-phenylpropanamide]",–,50 to 200
"Cn1nc(C(Cc2ccccc2)C(=O)NO)c2ccc(-c3cncnc3)cc21 (stereo not shown) [Compound I-0204, N-hydroxy-2-(1-methyl-6-pyrimidin-5-yl-1H-indazol-3-yl)-3-phenylpropanamide]",84,50 to 200
"Cn1nc(C(Cc2ccccc2)C(=O)NO)c2ccc(-c3ccncc3)cc21 (stereo not shown) [Compound I-0205, N-hydroxy-2-(1-methyl-6-(pyridin-4-yl)-1H-indazol-3-yl)-3-phenylpropanamide]",–,50 to 200
"O=C(NO)C(Cc1ccccc1)n1nc2c(c1C#CC1CC1)CCCC2 (stereo not shown) [Compound I-0206, 2-(3-(cyclopropylethynyl)-4,5,6,7-tetrahydro-2H-indazol-2-yl)-N-hydroxy-3-phenylpropanamide]",–,≤ 50
"O=C(NO)C(Cc1ccccc1)n1nc2c(-c3cncnc3)nccc2c1C#CC1CC1 (stereo not shown) [Compound I-0207, 2-(3-(cyclopropylethynyl)-7-(pyrimidin-5-yl)-2H-pyrazolo[3,4-c]pyridin-2-yl)-N-hydroxy-3-phenylpropanamide]",–,≤ 50
